# Earlier results as cited in US20240148693A1, “COMPOSITION, PREPARATION METHOD THEREFOR, AND USE THEREOF” (CHANGSHA JINGYI PHARMACEUTICAL TECHNOLOGY CO., LTD, priority 2021, published 2024).
# System: synaptic vesicle glycoprotein 2A (SV2A)
# Conditions: preclinical animal experiments
smiles,measurement,value
CCC[C@@H]1CC(=O)N([C@@H](CC)C(N)=O)C1 [Brivaracetam],Affinity for SV2A relative to levetiracetam,15-30 times
